Test systems include SNB-78 CNS; DLD-1 colon; LXFL 529 NSCLC; KM20L2 colon; DMS 114 small cell lung; MDA-N; XF 498 CNS; DMS 273 small cell lung; RXF-631 renal.
Assay in all cases: NCI tumour cell line growth inhibition, 48 h

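Five concentrations, 48 hours, 96-well plates. GI50: concentration for 50% inhibition of growth. At the TGI there is no net growth.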 A value given as a limit tells only on which side of the number the result lay.

Consider `NCCN.NCCN.O=C[O-].O=C[O-].[Co+3].[O-][Cl+3]([O-])([O-])[O-]`, for which the GI50 with SNB-78 CNS, in the experiment on DLD-1 colon, with LXFL 529 NSCLC, with KM20L2 colon and in the experiment on DMS 114 small cell lung was greater than 100 µM each time. Further, the TGI in the experiment on SNB-78 CNS, in the experiment on DLD-1 colon, in the experiment on LXFL 529 NSCLC, in the experiment on KM20L2 colon and in the experiment on DMS 114 small cell lung was greater than 100 µM in each case.
For the compound `CCN1C2=NCCN2S(=O)(=O)c2ccccc21`, the TGI in the experiment on MDA-N is greater than 100 µM.
As to `CCOC(=O)C(=O)Nc1ccc(Cl)cc1C`, the TGI with SNB-78 CNS, in the experiment on DLD-1 colon, in the experiment on LXFL 529 NSCLC, in the experiment on XF 498 CNS, in the experiment with KM20L2 colon and in the experiment on DMS 114 small cell lung was greater than 100 µM each time. Also, the TGI in the experiment with DMS 273 small cell lung was greater than 100 µM.
In the case of `O=C(O)c1cc2ccccc2c(N=Nc2cc(C(F)(F)F)ccc2Cl)c1O`, the TGI in the experiment on MDA-N is greater than 100 µM.
Regarding `O=S(=O)(SCc1ccccc1)C(c1ccccc1)c1ccccc1`, the TGI in the experiment with SNB-78 CNS was 75.7 µM; in the experiment with DLD-1 colon, 55.4 µM; in the experiment with LXFL 529 NSCLC, greater than 100 µM; in the experiment on XF 498 CNS it was greater than 100 µM; with KM20L2 colon, 40.5 µM; in the experiment with DMS 114 small cell lung, 48.1 µM. In addition, the TGI with DMS 273 small cell lung is greater than 100 µM.
With `O=C(CC1(O)C(=O)Nc2ccccc21)c1ccco1` (stereo unspecified), the TGI in the experiment on SNB-78 CNS, in the experiment on DLD-1 colon, in the experiment on LXFL 529 NSCLC, in the experiment with XF 498 CNS, in the experiment on KM20L2 colon and with DMS 114 small cell lung was greater than 100 µM throughout. In the experiment with DMS 273 small cell lung, this compound yielded a TGI greater than 100 µM.
As to `COC(=O)CCC(=O)Nc1cc(Cl)ccc1Cl`, the TGI in the experiment on SNB-78 CNS, in the experiment with DLD-1 colon, in the experiment with LXFL 529 NSCLC, in the experiment with XF 498 CNS, with KM20L2 colon and with DMS 114 small cell lung was greater than 100 µM in each case.
Turning to `COc1ccc(C[C@@H]2NC[C@@H](O)[C@@H]2OC(C)=O)cc1`, the TGI is 13.8 µM in the experiment on DLD-1 colon; 24.1 µM in the experiment on LXFL 529 NSCLC; greater than 100 µM with KM20L2 colon; greater than 100 µM with DMS 114 small cell lung; greater than 100 µM in the experiment on DMS 273 small cell lung.
As to `O=[N+]([O-])/C=C/c1cc2ccccc2[nH]1`, the TGI with MDA-N was 12.1 µM.
Consider `CN(C)/N=C(/c1nc2ccc([N+](=O)[O-])cc2[nH]c1=O)C(O)c1ccco1` (stereo unspecified), for which the TGI in the experiment with SNB-78 CNS, in the experiment on DLD-1 colon, with LXFL 529 NSCLC, with XF 498 CNS, with KM20L2 colon and in the experiment with DMS 114 small cell lung was greater than 100 µM throughout. Besides, in the experiment on DMS 273 small cell lung, the TGI is greater than 100 µM.
Turning to `O=C(O)/C(Cl)=C(\Cl)C(=O)NC1C2CC3CC(C2)CC1C3` (stereo unspecified), the TGI in the experiment on SNB-78 CNS, in the experiment with DLD-1 colon, in the experiment on LXFL 529 NSCLC, with RXF-631 renal, with XF 498 CNS and in the experiment on KM20L2 colon was greater than 100 µM each time. In addition, the TGI in the experiment with DMS 114 small cell lung and in the experiment on DMS 273 small cell lung was greater than 100 µM throughout.
Consider `COc1ccc(C(=O)C(c2ccc(OC)cc2)C2OC(=O)C(Cl)=C2Cl)cc1` (stereo unspecified), for which the TGI in the experiment on SNB-78 CNS, in the experiment with DLD-1 colon, in the experiment on LXFL 529 NSCLC, in the experiment on XF 498 CNS and in the experiment on DMS 114 small cell lung was greater than 100 µM throughout.
As for `CC(=O)OC1CC2Oc3ccc(C)cc3C(C)(O2)C1=O` (stereo unspecified), the TGI with DLD-1 colon, with XF 498 CNS, in the experiment with DMS 114 small cell lung and with DMS 273 small cell lung was greater than 100 µM throughout.
With `Cc1ccc(NC(=O)C(=O)CC(=O)C2CCOC2=O)c(C)c1` (stereo unspecified), the TGI in the experiment with SNB-78 CNS, in the experiment on DLD-1 colon, in the experiment on LXFL 529 NSCLC, in the experiment with RXF-631 renal, with XF 498 CNS and with KM20L2 colon was greater than 100 µM in each case. The TGI in the experiment with DMS 114 small cell lung and in the experiment on DMS 273 small cell lung was greater than 100 µM throughout.
With `O=C(Cc1nc2ccccc2s1)C(=O)Nc1cccc(Cl)c1`, the TGI in the experiment with SNB-78 CNS, in the experiment with DLD-1 colon, with LXFL 529 NSCLC, in the experiment with RXF-631 renal, in the experiment with XF 498 CNS and in the experiment with KM20L2 colon was greater than 100 µM each time. Also, the TGI with DMS 114 small cell lung and in the experiment on DMS 273 small cell lung was greater than 100 µM each time.
For `C=C1c2[nH]c3ccccc3c2C2C(CC)C1CCN2C` (stereo unspecified), in the experiment with MDA-N, the TGI is greater than 100 µM.
As to `COc1cc(O)c2c(c1)C(=O)C=C(Cl)C2=O`, the TGI with SNB-78 CNS, in the experiment on DLD-1 colon, with LXFL 529 NSCLC, in the experiment with RXF-631 renal, in the experiment with XF 498 CNS and with KM20L2 colon was greater than 100 µM each time. For the same compound, the TGI in the experiment with DMS 114 small cell lung and in the experiment on DMS 273 small cell lung was greater than 100 µM throughout.
On to `Cc1[nH]c2ccccc2c1-c1cc(-c2cc(-c3c(C)[nH]c4ccccc34)nc(N)n2)nc(N)n1`, for which the TGI with MDA-N was greater than 100 µM.
On to `O=C(Nc1cccc(Cc2cccc(NC(=O)c3ccccc3)c2)c1)c1ccccc1`, for which the TGI in the experiment on DLD-1 colon, with LXFL 529 NSCLC, in the experiment with KM20L2 colon, in the experiment with DMS 114 small cell lung and in the experiment with DMS 273 small cell lung was greater than 100 µM each time.
In turn, `COC(=O)NC1(NC(=O)OC)NC(=O)c2cc(OC)c(OC)c(OC)c2N1` displayed a TGI in the experiment with MDA-N of 16.9 µM.
Take `O/N=C1/C(=C/c2ccc(Oc3ccccc3)cc2)CCCC1C(NO)c1ccc(Oc2ccccc2)cc1` (stereo unspecified): the TGI is greater than 100 µM in the experiment on SNB-78 CNS; greater than 100 µM in the experiment with DLD-1 colon; greater than 100 µM with LXFL 529 NSCLC; greater than 100 µM in the experiment on RXF-631 renal; greater than 100 µM with XF 498 CNS; 26.7 µM in the experiment with KM20L2 colon. Also, the TGI in the experiment on DMS 114 small cell lung and with DMS 273 small cell lung was greater than 100 µM in each case.
As for `CC1(C)OB(O)OC1(C)C`, the TGI with SNB-78 CNS, in the experiment on DLD-1 colon, in the experiment with LXFL 529 NSCLC, in the experiment on XF 498 CNS, in the experiment on KM20L2 colon and in the experiment with DMS 114 small cell lung was greater than 100 µM in each case. Besides, the TGI in the experiment on DMS 273 small cell lung is greater than 100 µM.

The values are drawn from PubChem BioAssay (NCI).
